Source: patent publication US20230120597A1, “CO-AGONISTS AT GLP-1 AND GIP RECEPTORS SUITABLE FOR ORAL DELIVERY” (Novo Nordisk A/S, priority 2020, published 2023)
Marks after values point to notes of the source that are not given here. Starred links: 1 amine or outer side, 2 acyl side, 3 side chain; linkers in the order of their positions; H or OH if unused. Non-standard residues stand in square brackets, D forms with d. Residues, ends and D or L forms follow the SMILES beside them. Groups on a side chain read outwards from the residue. *: point of attachment. C18 diacid = O=C(O)CCCCCCCCCCCCCCCCC(=O)*; γGlu = O=C(O)[C@H](CCC(=O)[*:2])N[*:1]; εLys = N[C@@H](CCCCN[*:1])C(=O)[*:2]; AEEA = NCCOCCOCC(=O)O; Aib = CC(C)(N)C(=O)O

Assay: Pharmacokinetic study in dogs, oral dosing of tablet compositions with SNAC
Format: in vivo, Beagle dogs
Experimental: The purpose of this example is to determine the half-life and plasma exposure in vivo of the compounds of the present invention after p.o. administration to beagle dogs, i.e. the terminal half-life and concentration of test substance that reaches circulation with time. This is done in a pharmacokinetic (PK) study, where these parameters of the compound in question are determined. By terminal half-life is generally meant the period of time it takes to halve a certain plasma concentration, measured after the initial distribution phase.
The amount of SNAC in the tablet composition was 100-300 mg, the amount of magnesium stearate in the tablet composition was 7.7 mg, and the target amount of each test substance in the tablet composition was 3-4 mg.
Male beagle dogs, 1-7 years of age and weighing 9-17 kg during the study period, were included in the study. The dogs were dosed in a fasting state. The dogs were group housed in pens (12 hours light: 12 hours dark), and fed individually and restrictedly once daily with Royal Canin Medium Adult dog food (Royal Canin Products, China Branch, or Brogaarden A/S, Denmark). The dogs were used for repeated PK studies with a suitable wash-out period between successive dosing. An appropriate acclimatization period was given prior to initiation of the first PK study. All handling, dosing, and blood sampling of the animals were performed by trained and skilled staff. Before the studies, the dogs were fasted overnight and from 0 to 4 hours after dosing. The dogs were restricted to water 1 hour before dosing until 4 hours after dosing, but otherwise had ad libitum access to water during the whole period.
The compositions were administered by a single oral dosing to the dogs in groups of 6-8 dogs. […] The mouth was then closed, and 10 mL of tap water was given by syringe or gavage to facilitate swallowing of the tablet.
One blood sample was drawn before dosing, and additional samples were drawn at predefined time points after dosing for up to 240 hours, such as up to 10 hours, to adequately cover the full plasma concentration-time absorption profile of the test substance. For each blood sample time point, approximately 0.8 mL of whole blood was collected in a 1.5 mL EDTA-coated tube, which was gently turned to mix the sample with EDTA. Blood samples were collected in EDTA buffer (8 mM) and then centrifuged at 4° C. 2000 g for 10 minutes. Plasma was pipetted into Micronic tubes on dry ice, and kept at −20° C. or lower until analysis. Blood samples were taken as appropriate, for example from a venflon in the cephalic vein in the front leg for the first 2 hours and then with syringe from the jugular vein for the rest of the time points. The first few drops were allowed to drain from the venflon to avoid heparin saline from the venflon in the sample.
All blood samples were collected into test tubes containing EDTA for stabilisation and kept on ice until centrifugation. Plasma was separated from whole blood by centrifugation and the plasma was stored at −20° C. or lower until analysis.
The plasma was analysed for test substance using LC-MS (Liquid Chromatography-Mass Spectrometry) as known to the person skilled in the art. […] RP-HPLC separation was achieved using a linear gradient of 1:1 acetonitrile/methanol in 1% aqueous formic acid using either: a Phenomenex Onyx Monolithic C18 column (50×2.0 mm) and a flow rate of 0.8 mL/min at 30° C.; or an Agilent Poroshell 120 SB-C18 column (50×2.1 mm, 2.7 μm) at a flow rate of 0.4 mL/min at 60° C. The mass spectrometer was operated in either positive ionization SIM mode or positive ionization PRM mode.
For each individual animal, a plasma concentration-time profile was analysed by a non-compartmental model in Pharsight Phoenix WinNonLin ver.

Row | SMILES | AUC/Dose (oral tablet, SNAC 300 mg, test substance 3 mg, Beagle dogs, arithmetic mean) | AUC/Dose (dog, in vivo, po)
1 | CC[C@H](C)[C@H](NC(=O)[C@H](Cc1ccccc1)NC(=O)[C@H](CCC(=O)O)NC(=O)[C@H](CCCNC(=N)N)NC(=O)[C@H](C)NC(=O)[C@H](C)NC(=O)[C@H](CCC(N)=O)NC(=O)[C@H](CCCCNC(=O)[C@@H](N)CCCCNC(=O)[C@@H](N)CCCCNC(=O)CC[C@H](NC(=O)CCCCCCCCCCCCCCCCC(=O)O)C(=O)O)NC(=O)[C@H](CCC(=O)O)NC(=O)[C@H](CC(C)C)NC(=O)[C@H](CC(C)C)NC(=O)[C@@H](NC(=O)[C@H](CO)NC(=O)[C@H](Cc1ccc(O)cc1)NC(=O)[C@H](CC(=O)O)NC(=O)[C@H](CO)NC(=O)[C@@H](NC(=O)[C@H](Cc1ccccc1)NC(=O)[C@@H](NC(=O)CNC(=O)[C@H](CCC(=O)O)NC(=O)C(C)(C)NC(=O)[C@@H](N)Cc1ccc(O)cc1)[C@@H](C)O)[C@@H](C)O)[C@@H](C)CC)C(=O)N[C@@H](CCC(=O)O)C(=O)N[C@@H](Cc1c[nH]c2ccccc12)C(=O)N[C@@H](CC(C)C)C(=O)N[C@@H](CC(C)C)C(=O)N[C@@H](CCCNC(=N)N)C(=O)NCC(=O)NCC(=O)N1CCC[C@H]1C(=O)N[C@@H](CCC(=O)O)C(=O)N[C@@H](CO)C(=O)NCC(=O)N[C@@H](C)C(=O)N1CCC[C@H]1C(=O)N1CCC[C@H]1C(=O)N1CCC[C@H]1C(=O)N[C@@H](CO)C(=O)O [Compound No. 28] (H-Y[Aib]EGTFTSDYSILLEK([εLys-εLys-γGlu-C18 diacid])QAAREFIEWLLRGGPESGAPPPS-OH) | 18.6** kg*h/L | –
2 | CC[C@H](C)[C@H](NC(=O)[C@H](Cc1ccccc1)NC(=O)[C@H](CCC(=O)O)NC(=O)[C@H](CCC(N)=O)NC(=O)[C@H](C)NC(=O)[C@H](C)NC(=O)[C@H](CCC(N)=O)NC(=O)[C@H](CCCCNC(=O)[C@@H](N)CCCCNC(=O)[C@@H](N)CCCCNC(=O)CC[C@H](NC(=O)CCCCCCCCCCCCCCCCC(=O)O)C(=O)O)NC(=O)[C@H](CCC(=O)O)NC(=O)[C@H](CC(C)C)NC(=O)[C@H](CC(C)C)NC(=O)[C@@H](NC(=O)[C@H](CO)NC(=O)[C@H](Cc1ccc(O)cc1)NC(=O)[C@H](CC(=O)O)NC(=O)[C@H](CO)NC(=O)[C@@H](NC(=O)[C@H](Cc1ccccc1)NC(=O)[C@@H](NC(=O)CNC(=O)[C@H](CCC(=O)O)NC(=O)C(C)(C)NC(=O)[C@@H](N)Cc1ccc(O)cc1)[C@@H](C)O)[C@@H](C)O)[C@@H](C)CC)C(=O)N[C@@H](CCC(=O)O)C(=O)N[C@@H](Cc1c[nH]c2ccccc12)C(=O)N[C@@H](CC(C)C)C(=O)N[C@@H](CC(C)C)C(=O)N[C@@H](C)C(=O)NCC(=O)NCC(=O)N1CCC[C@H]1C(=O)N[C@@H](CO)C(=O)N[C@@H](CO)C(=O)NCC(=O)N[C@@H](C)C(=O)N1CCC[C@H]1C(=O)N1CCC[C@H]1C(=O)N1CCC[C@H]1C(=O)N[C@@H](CO)C(=O)O [Compound No. 29] (H-Y[Aib]EGTFTSDYSILLEK([εLys-εLys-γGlu-C18 diacid])QAAQEFIEWLLAGGPSSGAPPPS-OH) | – | 16.6** kg*h/L
3 | CC[C@H](C)[C@H](NC(=O)[C@H](Cc1ccccc1)NC(=O)[C@H](CCC(=O)O)NC(=O)[C@H](Cc1c[nH]cn1)NC(=O)[C@H](C)NC(=O)[C@H](C)NC(=O)[C@H](CCC(N)=O)NC(=O)[C@H](CCCCNC(=O)[C@@H](N)CCCCNC(=O)[C@@H](N)CCCCNC(=O)CC[C@H](NC(=O)CCCCCCCCCCCCCCCCC(=O)O)C(=O)O)NC(=O)[C@H](CCC(=O)O)NC(=O)[C@H](CC(C)C)NC(=O)[C@H](CC(C)C)NC(=O)[C@@H](NC(=O)[C@H](CO)NC(=O)[C@H](Cc1ccc(O)cc1)NC(=O)[C@H](CC(=O)O)NC(=O)[C@H](CO)NC(=O)[C@@H](NC(=O)[C@H](Cc1ccccc1)NC(=O)[C@@H](NC(=O)CNC(=O)[C@H](CCC(=O)O)NC(=O)C(C)(C)NC(=O)[C@@H](N)Cc1ccc(O)cc1)[C@@H](C)O)[C@@H](C)O)[C@@H](C)CC)C(=O)N[C@@H](CCC(=O)O)C(=O)N[C@@H](Cc1c[nH]c2ccccc12)C(=O)N[C@@H](CC(C)C)C(=O)N[C@@H](CC(C)C)C(=O)N[C@@H](C)C(=O)NCC(=O)NCC(=O)N1CCC[C@H]1C(=O)N[C@@H](CO)C(=O)N[C@@H](CO)C(=O)NCC(=O)N[C@@H](C)C(=O)N1CCC[C@H]1C(=O)N1CCC[C@H]1C(=O)N1CCC[C@H]1C(=O)N[C@@H](CO)C(=O)O [Compound No. 30] (H-Y[Aib]EGTFTSDYSILLEK([εLys-εLys-γGlu-C18 diacid])QAAHEFIEWLLAGGPSSGAPPPS-OH; N-terminus assumed) | – | 6.5 kg·h/L
4 | CC[C@H](C)[C@H](NC(=O)[C@H](Cc1ccccc1)NC(=O)[C@H](CCC(=O)O)NC(=O)[C@H](CCCNC(=N)N)NC(=O)[C@H](C)NC(=O)[C@H](C)NC(=O)[C@H](CCC(N)=O)NC(=O)[C@H](CCCCNC(=O)[C@@H](N)CCCCNC(=O)[C@@H](N)CCCCNC(=O)CC[C@H](NC(=O)CCCCCCCCCCCCCCCCC(=O)O)C(=O)O)NC(=O)[C@H](CCC(=O)O)NC(=O)[C@H](CC(C)C)NC(=O)[C@H](CC(C)C)NC(=O)[C@@H](NC(=O)[C@H](CO)NC(=O)[C@H](Cc1ccc(O)cc1)NC(=O)[C@H](CC(=O)O)NC(=O)[C@H](CO)NC(=O)[C@@H](NC(=O)[C@H](Cc1ccccc1)NC(=O)[C@@H](NC(=O)CNC(=O)[C@H](CCC(=O)O)NC(=O)C(C)(C)NC(=O)[C@@H](N)Cc1ccc(O)cc1)[C@@H](C)O)[C@@H](C)O)[C@@H](C)CC)C(=O)N[C@@H](CCC(=O)O)C(=O)N[C@@H](Cc1c[nH]c2ccccc12)C(=O)N[C@@H](CC(C)C)C(=O)N[C@@H](CC(C)C)C(=O)N[C@@H](C)C(=O)NCC(=O)NCC(=O)N1CCC[C@H]1C(=O)N[C@@H](CO)C(=O)N[C@@H](CO)C(=O)NCC(=O)N[C@@H](C)C(=O)N1CCC[C@H]1C(=O)N1CCC[C@H]1C(=O)N1CCC[C@H]1C(=O)N[C@@H](CO)C(=O)O [Compound No. 31] (H-Y[Aib]EGTFTSDYSILLEK([εLys-εLys-γGlu-C18 diacid])QAAREFIEWLLAGGPSSGAPPPS-OH; N-terminus assumed) | – | 17.9** kg*h/L
5 | CC[C@H](C)[C@H](NC(=O)[C@H](Cc1ccccc1)NC(=O)[C@H](CCC(=O)O)NC(=O)[C@H](CCCNC(=N)N)NC(=O)[C@H](C)NC(=O)[C@H](C)NC(=O)[C@H](CCC(N)=O)NC(=O)[C@H](CCCCNC(=O)COCCOCCNC(=O)COCCOCCNC(=O)CC[C@H](NC(=O)CCCCCCCCCCCCCCCCC(=O)O)C(=O)O)NC(=O)[C@H](CCC(=O)O)NC(=O)[C@H](CC(C)C)NC(=O)[C@H](CC(C)C)NC(=O)[C@@H](NC(=O)[C@H](CO)NC(=O)[C@H](Cc1ccc(O)cc1)NC(=O)[C@H](CC(=O)O)NC(=O)[C@H](CO)NC(=O)[C@@H](NC(=O)[C@H](Cc1ccccc1)NC(=O)[C@@H](NC(=O)CNC(=O)[C@H](CCC(=O)O)NC(=O)C(C)(C)NC(=O)[C@@H](N)Cc1ccc(O)cc1)[C@@H](C)O)[C@@H](C)O)[C@@H](C)CC)C(=O)N[C@@H](CCC(=O)O)C(=O)N[C@@H](Cc1c[nH]c2ccccc12)C(=O)N[C@@H](CC(C)C)C(=O)N[C@@H](CC(C)C)C(=O)N[C@@H](C)C(=O)NCC(=O)NCC(=O)N1CCC[C@H]1C(=O)N[C@@H](CO)C(=O)N[C@@H](CO)C(=O)NCC(=O)N[C@@H](C)C(=O)N1CCC[C@H]1C(=O)N1CCC[C@H]1C(=O)N1CCC[C@H]1C(=O)N[C@@H](CO)C(=O)O [Compound No. 32] (H-Y[Aib]EGTFTSDYSILLEK([AEEA-AEEA-γGlu-C18 diacid])QAAREFIEWLLAGGPSSGAPPPS-OH; N-terminus assumed) | – | 25.3* kg*h/L
